The text below walks through data of US11692436B2, “Molecular tracers and modified proppants for monitoring underground fluid flows” (National Technology & Engineering Solutions of Sandia, LLC, priority 2014, dated 2023).

The nature of this data set: Elution studies: tracer release from an infused porous proppant pack under constant solvent flow. In kind it is physicochemical. The conditions noted are these: proppant pack infused with 4. On the procedure:
Elution studies: Laboratory experiments designed to mimic fluid flow through hydraulically-fractured zones in a subsurface well that contain a ceramic proppant were conducted. In general, the experimental setup uses a cartridge pump to send the desired solvent fluid (either aqueous or hydrocarbon) at a constant rate through a small “proppant pack” to a fraction collector. The proppant pack consists of porous proppants that have been infused with the metal salen compounds which are packed into a plastic syringe equipped with a fine mesh proppant retention screen at the entrance tip. The pore volume—a measure of the fluid volume within the pack of proppant pellets—is measured. The proppant pack is then sealed at the top with a rubber septum to generate pressure to force the exiting fluid into tubing for transport to the collection test tubes in the fraction collector. Samples were collected over many pore volumes and the concentrations of metal complexes in the samples were measured by either Atomic Absorption Spectrophotometry (AAS) or Raman spectroscopy after the desired number of pore volumes had passed over the proppant pack. […] This retardation of tracer release in the early stage of use is important as it will extend the useful life of the tracer in practical applications, as the total amount of tracer that can be loaded is limited by the porosity of the proppant and solubility of the M-L metal complex.
(iii) Elution data. As mentioned previously, in order for the prepared metal-salen ligand complexes to be useful in tracking fluid flows the infused complexes must elute from the underground proppants upon exposure to the produced fluid, and remain soluble until they are analyzed above-ground. […]
Second, the testing solvent can be either an aqueous salt solution that simulates a formation brine or a long-chain hydrocarbon (such as Isopar L) to mimic the organic products. […] The amount of eluted tracer could also be measured using quantitative Raman spectroscopy. […]

Turning to “[(κ^4-(O,N,N′,O′)saloPh-Bu^t)Mg(py)2].tol [Compound 4]”, the “level of eluted Mg-salen complex” value is, setting by setting: (aliquot taken after four pore volumes had been collected (initial phase)) 176 ppb; (intermediate sampling at the 20 pore volume mark) 29 ppb; (latter stages of testing at the ~40 pore volume mark) 9 ppb.
